From US9406887B2, “Solution, organic semiconductor material, organic semiconductor film, electronic device and electronic equipment” (RICOH COMPANY, LTD., priority 2013, dated 2016)

Columns and labels:
[1] = Solubility of the compound in an organic solvent (saturated solution at 25° C. after reflux); assay type: physicochemical; conditions: cooled to 25° C. after reflux; for solubility in CHCl3: chloroform
Experimental: After the compound was added to […] of an organic solvent such as toluene, THF and chloroform until insoluble residue remained, the mixture was stirred for 10 min while the organic solvent was refluxed with heat. Next, after the mixture was cooled to have a temperature of 25° C., it was stirred for 1 hr. Further, after quietly put for 16 hrs, the top clear layer of the mixture was filtered through a PTFE filter having a hole diameter of 0.2 μm to prepare a saturated solution. Next, the solution was dried under reduced pressure and the solubility of the compound in an organic solvent was measured. The evaluation standard of the solubility of the compound in an organic solvent is as follows.

[2] = Weight variation (TG) on heating, thermal analyzer EXSTRA6200; assay type: physicochemical; conditions: heated to 250° C. at 20° C./min, nitrogen atmosphere
Experimental: After 50 mg (0.10 mmol) of the compound having the formula (1-1) were placed in an aluminum pan, they were heated to have a temperature of 250° C. at 20° C./min and weight variation (TG) thereof was measured using a thermal analyzer EXSTRA6200 from Seiko Instruments, Inc. in a nitrogen atmosphere. Thus, 29 mg (yield rate quant.) of a dark purple solid compound having the formula (2-1) was obtained.

Row | Compound | solubility in THF [1] | solubility in CHCl3 [1] | solubility in Toluene [1] | weight reduction (TG) [2] [%]
1 | CCCCCCCCCCCCOc1cc(-c2ccc(-c3ccc(-c4ccc(C5=C6C(=O)N(C(=O)OC(C)(C)C)C(c7ccc(-c8ccc(-c9ccc(-c%10cc(OCCCCCCCCCCCC)c(OCCCCCCCCCCCC)c(OCCCCCCCCCCCC)c%10)s9)s8)s7)=C6C(=O)N5C(=O)OC(C)(C)C)s4)s3)s2)cc(OCCCCCCCCCCCC)c1OCCCCCCCCCCCC [formula (1-27)] | Good (not less than 0.1% and less than 0.5% by weight) | Excellent (not less than 0.5% by weight) | Good (not less than 0.1% and less than 0.5% by weight) | 9.4
2 | CCCCCCc1ccc(-c2ccc(C3=C4C(=O)N(C(=O)OC(C)(C)C)C(c5ccc(-c6ccc(CCCCCC)s6)s5)=C4C(=O)N3C(=O)OC(C)(C)C)s2)s1 [formula (1-12)] | Good (not less than 0.1% and less than 0.5% by weight) | Excellent (not less than 0.5% by weight) | Excellent (not less than 0.5% by weight) | 23.8
3 | CCCCCCCCCCCCOc1cc(-c2ccc(-c3ccc(C4=C5C(=O)N(C(=O)OC(C)(C)C)C(c6ccc(-c7ccc(-c8cc(OCCCCCCCCCCCC)c(OCCCCCCCCCCCC)c(OCCCCCCCCCCCC)c8)s7)s6)=C5C(=O)N4C(=O)OC(C)(C)C)s3)s2)cc(OCCCCCCCCCCCC)c1OCCCCCCCCCCCC [formula (1-25)] | Excellent (not less than 0.5% by weight) | Excellent (not less than 0.5% by weight) | Excellent (not less than 0.5% by weight) | 10.3
4 | CC(C)(C)OC(=O)N1C(=O)C2=C(c3ccc(Br)s3)N(C(=O)OC(C)(C)C)C(=O)C2=C1c1ccc(Br)s1 [formula (1-4)] | Excellent (not less than 0.5% by weight) | Excellent (not less than 0.5% by weight) | Good (not less than 0.1% and less than 0.5% by weight) | 31.6
5 | CCCCCCc1ccc(-c2ccc(-c3ccc(C4=C5C(=O)N(C(=O)OC(C)(C)C)C(c6ccc(-c7ccc(-c8ccc(CCCCCC)s8)s7)s6)=C5C(=O)N4C(=O)OC(C)(C)C)s3)s2)s1 [formula (1-16)] | Excellent (not less than 0.5% by weight) | Excellent (not less than 0.5% by weight) | Excellent (not less than 0.5% by weight) | 19.8
6 | O=C1NC(c2cccs2)=C2C(=O)NC(c3cccs3)=C12 [formula (2-1)] | Poor (less than 0.005% by weight) | Poor (less than 0.005% by weight) | Poor (less than 0.005% by weight) | –

The next lines start with the values.

Row | solubility in THF [1] | solubility in CHCl3 [1] | solubility in Toluene [1] | weight reduction (TG) [2] [%] | Compound
7 | Excellent (not less than 0.5% by weight) | Excellent (not less than 0.5% by weight) | Excellent (not less than 0.5% by weight) | 23.1 | CCCCCCOc1ccc(-c2ccc(C3=C4C(=O)N(C(=O)OC(C)(C)C)C(c5ccc(-c6ccc(OCCCCCC)cc6)s5)=C4C(=O)N3C(=O)OC(C)(C)C)s2)cc1 [formula (1-18)]
8 | Excellent (not less than 0.5% by weight) | Excellent (not less than 0.5% by weight) | Excellent (not less than 0.5% by weight) | 34.6 | CC(C)(C)OC(=O)N1C(=O)C2=C(c3cccs3)N(C(=O)OC(C)(C)C)C(=O)C2=C1c1cccs1 [formula (1-1)]
9 | Excellent (not less than 0.5% by weight) | Excellent (not less than 0.5% by weight) | Excellent (not less than 0.5% by weight) | 23.1 | CCCCCCc1csc(-c2ccc(C3=C4C(=O)N(C(=O)OC(C)(C)C)C(c5ccc(-c6cc(CCCCCC)cs6)s5)=C4C(=O)N3C(=O)OC(C)(C)C)s2)c1 [formula (1-17)]
